# Measured values published in patent US4260630A, “Skin diseases” (priority 1977, dated 1981).
# Tests used:
# yeast DNA [1] = test: Photobinding to yeast DNA in vivo (radiolabelled drug plus 365 nm light); assay type: binding, Saccharomyces cerevisiae
# Method: (§1) The radioactivity of an aliquot (0.1 ml) of this solution was measured in 5 ml of scintillation mixture (Nuclear Entreprise, Ltd., Edinburgh, Scotland, NE 250).
# (§2) For the in vivo determinations stationary phase cells of the haploid wild type strain N 123 were prepared as previously described.
# (§3) 2 ml cell suspensions were exposed to several doses of 365 nm light. In parallel, non irradiated samples were incubated for the same periods. Immediately after incubation and/or irradiation, the samples were centrifuged and the pellet was washed 3 times with 5 ml of saline (0.9% NaCl). The washed cell pellet was resuspended in 1 ml of saline and 1 ml of 2 N NaOH was added in order to hydrolyze the RNA. The suspension was incubated overnight in the dark at room temperature, then cooled down on ice, and 2 ml of 50% TCA were added slowly. The samples were left 20 minutes on ice and the precipitated DNA was filtered on a glass fiber filter disc (Whatman GF/A, 2.1 cm diameter). In some cases the filtrate containing the acid-soluble material was kept aside, and the radioactivity of an aliquot added to 5 ml of NE250 scintillation mixture measured. The precipitate was washed 3 times with 5 ml of 5% cold TCA and 5 ml of 70% ethanol. The filters were then dried and the radioactivity measured in plastic counting vials containing 5 ml of scintillation mixture (NE 250) in a Tricarb Packard scintillation spectrophotometer.
# yeast RNA = test: Photobinding to yeast RNA in vivo (radiolabelled drug plus 365 nm light); assay type: binding, Saccharomyces cerevisiae; details: for cpm for 10^8 cells: RNA; for Molecules 8-MOP/μg DNA / μg 8-MOP/μg DNA: binding to RNA
# Method: as §1, §2, §3
# calf thymus DNA = test: Photobinding to native calf thymus DNA in vitro; assay type: binding
# Method: These determinations were done in vitro and in vivo. […] The thickness of the irradiated sample was 1 mm. After irradiation, the solution was diluted by a factor of 2, and NaCl was added to a final concentration of 1 M. The DNA was precipitated with 2 volumes of cold pure ethanol. The samples were left overnight in the cold at -20° C. The precipitate was then washed by centrifugation three times with 3 ml of 70% ethanol and redissolved in 3 ml of water. The DNA recovery was checked by determination of the optical density of the solution at 260 nm.
# yeast DNA [2] = test: Melting and reassociation (cross-link formation) of yeast DNA treated in vitro plus 365 nm light; assay type: biochemical
# Method: Measurement of the melting and reassociation characteristics of yeast DNA:
# Biophys. […] The fractions containing the nuclear DNA were pooled and dialysed against a 0.1 M, pH 7 phosphate buffer. […] Unirradiated samples of DNA with or without the drugs were taken as references.
# The cross-links formation of the two furocoumarins with native yeast DNA was tested by measuring the denaturation and renaturation pattern.
# Saccharomyces cerevisiae [3] = test system: Saccharomyces cerevisiae
# Method: (§4) A wild-type strain 211-1aM (29) of Saccharomyces cerivisiae was used, and the following mutants derived from it: S24-12c rad2-20 deficient in excision repair and S25-13b rad9-4 likely to be blocked in a recombinational repair pathway; a double mutant S 2057NL-24 rad2-20 -rad9-4 clone B was obtained by tetrad analysis of a heterozygote [formula]
# (§5) The media and culture conditions used were as described in D. Averbeck, E. Moustacchi, (1975) Biochim. Biophys. Acta, 395, 393-404.
# (§6) 10^6 cells/ml in saline (0.9% NaCl) were treated for 30 minutes with the drugs at a final concentration of 10 μg/ml and 1.2% ethanol present.
# (§7) A Philips HPW 125 culot Edison high pressure mercury lamp was used with maximal output at the wavelength 365 nm. The irradiation dose measured by actinometry was 10 J/m^2 per sec., using the following set up: 10 ml of actinometer solution (or the cell suspension, usually 1×10^6 cells/ml), stirred continuously by a magnetic stirrer, were irradiated at room temperature in an open Petri dish of 10 cm diameter at a distance of 10 cm from the center of the light bulb which was mounted horizontally. A 2 mm thick pyrex glass sheet (20×25 cm) was placed in the center of the light beam to cut out UV light of wavelength below 340 nm. Overheating was prevented either by a continuous flow of compressed air between the light bulb and the glass or by a pyrex glass water filter of 3 cm total thickness. An accumulative irradiation dose was given to the same sample. After each dose 0.1 ml of irradiated cell suspension was taken, diluted and aliquots plated.
# Saccharomyces cerevisiae [4] = test: Induction of cytoplasmic "petite" mutations in yeast; details: compared at the same survival level (10%)
# Method: as §4, §5, §6
# as §7, with “Overheating was prevented either by a continuous flow of compressed air between the light bulb and the glass or by a pyrex glass water filter of 3 cm total thickness. An accumulative irradiation dose was given to the same sample. After each dose 0.1 ml of irradiated cell suspension was taken, diluted and aliquots plated.” left out
# Saccharomyces cerevisiae [5] = test: Repair of photoinduced lesions in yeast (repair mutants, agar holding); assay type: cell-based
# Description: Biophys. Acta, 395, 393-404.
# Consequently, it appears that the excision repair pathway in wild type and rad9-4 cells is essential in AHR for both compounds.
# [6] = 8-MOP, 15 min, 18.9 × 10^4 ergs.mm^-2 365 nm
# [7] = 8-MOP, 30 min, 37.8 × 10^4 ergs.mm^-2 365 nm
# [8] = 8-MOP, 60 min, 75.6 × 10^4 ergs.mm^-2 365 nm
# [9] = 8-MOP, 90 min, 113.4 × 10^4 ergs.mm^-2 365 nm
# [10] = 8-MOP, 120 min, 151.2 × 10^4 ergs.mm^-2 365 nm
# [11] = 15 min, 18.9 × 10^4 ergs.mm^-2 365 nm
# [12] = 30 min, 37.8 × 10^4 ergs.mm^-2 365 nm
# [13] = 60 min, 75.6 × 10^4 ergs.mm^-2 365 nm
# [14] = 90 min, 113.4 × 10^4 ergs.mm^-2 365 nm
# [15] = 120 min, 151.2 × 10^4 ergs.mm^-2 365 nm
# [16] = equimolar concentration to 3-CPs
# [17] = 7.5 × 10^-5, 30 min, 37.8 erg. cm^-2 365 nm (so in the source)
# [18] = 7.5 × 10^-5, 60 min, 75.6 erg. cm^-2 365 nm (so in the source)
# [19] = 7.5 × 10^-5, 90 min, 113.4 erg. cm^-2 365 nm (so in the source)
# [20] = 7.5 × 10^-5, 120 min, 151.2 erg. cm^-2 365 nm (so in the source)
# [21] = 7.5 × 10^-5, 180 min, 226.8 erg. cm^-2 365 nm (so in the source)
structure (smiles),measurement,setting,value
"COc1c2occc2cc2ccc(=O)oc12 [Example 8-MOP, 8-methoxypsoralen, reference compound]",cpm for 10^8 cells,yeast DNA [1]; [6],1161 cpm for 10^8 cells
same,cpm for 10^8 cells,yeast DNA [1]; [7],1474 cpm for 10^8 cells
same,cpm for 10^8 cells,yeast DNA [1]; [8],2805 cpm for 10^8 cells
same,cpm for 10^8 cells,yeast DNA [1]; [9],5582 cpm for 10^8 cells
same,cpm for 10^8 cells,yeast DNA [1]; [10],5572 cpm for 10^8 cells
same,Molecules 8-MOP/μg DNA,"yeast DNA [1]; 15-120 min, no 365 nm light",0.034 Molecules 8-MOP/μg DNA × 10^14
same,cpm for 10^8 cells,"yeast DNA [1]; 15-120 min, no 365 nm light",404.75 cpm for 10^8 cells
same,μg 8-MOP/μg DNA,"yeast DNA [1]; 15-120 min, no 365 nm light",0.126 μg 8-MOP/μg DNA × 10^-2
same,molecules linked to DNA per cell,"yeast DNA [1]; 18.9×10^3 J/m^2, 5×10^-5 M",0.5×10^6 molecules per cell
same,binding to DNA in vivo compared with in vitro,yeast DNA [1]; 365 nm light,much higher in the in vivo condition than in vitro
same,Molecules 8-MOP/μg DNA,yeast DNA [1]; [11],0.10 Molecules 8-MOP/μg DNA × 10^14
same,μg 8-MOP/μg DNA,yeast DNA [1]; [11],0.36 μg 8-MOP/μg DNA × 10^-2
same,Molecules 8-MOP/μg DNA,yeast DNA [1]; [12],0.13 Molecules 8-MOP/μg DNA × 10^14
same,μg 8-MOP/μg DNA,yeast DNA [1]; [12],0.46 μg 8-MOP/μg DNA × 10^-2
same,Molecules 8-MOP/μg DNA,yeast DNA [1]; [13],0.24 Molecules 8-MOP/μg DNA × 10^14
same,μg 8-MOP/μg DNA,yeast DNA [1]; [13],0.86 μg 8-MOP/μg DNA × 10^-2
same,Molecules 8-MOP/μg DNA,yeast DNA [1]; [14],0.48 Molecules 8-MOP/μg DNA × 10^14
same,μg 8-MOP/μg DNA,yeast DNA [1]; [14],1.72 μg 8-MOP/μg DNA × 10^-2
same,Molecules 8-MOP/μg DNA,yeast DNA [1]; [15],0.48 Molecules 8-MOP/μg DNA × 10^14
same,μg 8-MOP/μg DNA,yeast DNA [1]; [15],1.72 μg 8-MOP/μg DNA × 10^-2
same,light dose dependence of binding with DNA,yeast DNA [1]; [16],increases linearly in the range of light doses used
same,photoaffinity for RNA,yeast RNA,relatively low photoaffinity for RNA
same,cpm for 10^8 cells,yeast RNA; [6],7400 cpm for 10^8 cells
same,cpm for 10^8 cells,yeast RNA; [7],12920 cpm for 10^8 cells
same,cpm for 10^8 cells,yeast RNA; [8],23580 cpm for 10^8 cells
same,cpm for 10^8 cells,yeast RNA; [9],34150 cpm for 10^8 cells
same,cpm for 10^8 cells,yeast RNA; [10],44060 cpm for 10^8 cells
same,cpm for 10^8 cells,"yeast RNA; 15-120 min, no 365 nm light",3805 cpm for 10^8 cells
same,Molecules 8-MOP/μg DNA,"yeast RNA; 15-120 min, no 365 nm light",0.033 Molecules 8-MOP/μg DNA × 10^14
same,μg 8-MOP/μg DNA,"yeast RNA; 15-120 min, no 365 nm light",0.12 μg 8-MOP/μg DNA × 10^-2
same,Molecules 8-MOP/μg DNA,yeast RNA; [11],0.064 Molecules 8-MOP/μg DNA × 10^14
same,μg 8-MOP/μg DNA,yeast RNA; [11],0.228 μg 8-MOP/μg DNA × 10^-2
same,Molecules 8-MOP/μg DNA,yeast RNA; [12],0.11 Molecules 8-MOP/μg DNA × 10^14
same,μg 8-MOP/μg DNA,yeast RNA; [12],0.40 μg 8-MOP/μg DNA × 10^-2
same,Molecules 8-MOP/μg DNA,yeast RNA; [13],0.20 Molecules 8-MOP/μg DNA × 10^14
same,μg 8-MOP/μg DNA,yeast RNA; [13],0.73 μg 8-MOP/μg DNA × 10^-2
same,Molecules 8-MOP/μg DNA,yeast RNA; [14],0.29 Molecules 8-MOP/μg DNA × 10^14
same,μg 8-MOP/μg DNA,yeast RNA; [14],1.05 μg 8-MOP/μg DNA × 10^-2
same,Molecules 8-MOP/μg DNA,yeast RNA; [15],0.38 Molecules 8-MOP/μg DNA × 10^14
same,μg 8-MOP/μg DNA,yeast RNA; [15],1.36 μg 8-MOP/μg DNA × 10^-2
same,light dose dependence of binding with RNA,yeast RNA; [16],increases linearly in the range of light doses used
same,μg 8-MOP/μDNA,"calf thymus DNA; 7.5 × 10^-5, 0-180 min incub. (dark)",0.031×10^-4 μg 8-MOP/μDNA
same,Binding yield 8-MOP molecules/nucleotide,calf thymus DNA; [17],1/900
same,μg 8-MOP/μDNA,calf thymus DNA; [17],7.3×10^-4 μg 8-MOP/μDNA
same,Binding yield 8-MOP molecules/nucleotide,calf thymus DNA; [18],1/532
same,μg 8-MOP/μDNA,calf thymus DNA; [18],12.4×10^-4 μg 8-MOP/μDNA
same,Binding yield 8-MOP molecules/nucleotide,calf thymus DNA; [19],1/428
same,μg 8-MOP/μDNA,calf thymus DNA; [19],15.4×10^-4 μg 8-MOP/μDNA
same,Binding yield 8-MOP molecules/nucleotide,calf thymus DNA; [20],1/386
same,μg 8-MOP/μDNA,calf thymus DNA; [20],17.1×10^-4 μg 8-MOP/μDNA
same,Binding yield 8-MOP molecules/nucleotide,calf thymus DNA; [21],1.256 molecules/nucleotide
same,μg 8-MOP/μDNA,calf thymus DNA; [21],25.8×10^-4 μg 8-MOP/μDNA
same,cpm/μg DNA,"calf thymus DNA; 8-MOP 7.5 × 10^-5, 0-180 min incub. (dark)",0.24 cpm/μg DNA
same,cpm/μg DNA,"calf thymus DNA; 8-MOP 7.5 × 10^-5, 30 min, 37.8 erg. cm^-2 365 nm (so in the source)",56.3 cpm/μg DNA
same,cpm/μg DNA,"calf thymus DNA; 8-MOP 7.5 × 10^-5, 60 min, 75.6 erg. cm^-2 365 nm (so in the source)",95.7 cpm/μg DNA
same,cpm/μg DNA,"calf thymus DNA; 8-MOP 7.5 × 10^-5, 90 min, 113.4 erg. cm^-2 365 nm (so in the source)",118.8 cpm/μg DNA
same,cpm/μg DNA,"calf thymus DNA; 8-MOP 7.5 × 10^-5, 120 min, 151.2 erg. cm^-2 365 nm (so in the source)",131.5 cpm/μg DNA
same,cpm/μg DNA,"calf thymus DNA; 8-MOP 7.5 × 10^-5, 180 min, 226.8 erg. cm^-2 365 nm (so in the source)",198.5 cpm/μg DNA
same,reassociation of DNA after heat denaturation,yeast DNA [2],a fraction of the DNA is capable to renature
same,photosensitization of cells compared with 3-CPs or angelicin,Saccharomyces cerevisiae [3],more photosensitized
same,survivors,"Saccharomyces cerevisiae [3]; saline, 5 min",10^-5
same,"induction of cytoplasmic ""petite"" mutations",Saccharomyces cerevisiae [4],less reactive
same,dark repair by strain defective in excision,Saccharomyces cerevisiae [5]; agar holding,unable to perform a dark repair
same,interaction between rad2 and rad9 repair pathways,Saccharomyces cerevisiae [5]; plus 365 nm light,additive interaction
same,kinetics of agar holding recovery (AHR),Saccharomyces cerevisiae [5]; wild-type cells,same kinetics of AHR
